Biological target: T1, HDAC6 (Homo sapiens, UniProt Q9UBN7)
T1 sequence (Q9UBN7 1-1215): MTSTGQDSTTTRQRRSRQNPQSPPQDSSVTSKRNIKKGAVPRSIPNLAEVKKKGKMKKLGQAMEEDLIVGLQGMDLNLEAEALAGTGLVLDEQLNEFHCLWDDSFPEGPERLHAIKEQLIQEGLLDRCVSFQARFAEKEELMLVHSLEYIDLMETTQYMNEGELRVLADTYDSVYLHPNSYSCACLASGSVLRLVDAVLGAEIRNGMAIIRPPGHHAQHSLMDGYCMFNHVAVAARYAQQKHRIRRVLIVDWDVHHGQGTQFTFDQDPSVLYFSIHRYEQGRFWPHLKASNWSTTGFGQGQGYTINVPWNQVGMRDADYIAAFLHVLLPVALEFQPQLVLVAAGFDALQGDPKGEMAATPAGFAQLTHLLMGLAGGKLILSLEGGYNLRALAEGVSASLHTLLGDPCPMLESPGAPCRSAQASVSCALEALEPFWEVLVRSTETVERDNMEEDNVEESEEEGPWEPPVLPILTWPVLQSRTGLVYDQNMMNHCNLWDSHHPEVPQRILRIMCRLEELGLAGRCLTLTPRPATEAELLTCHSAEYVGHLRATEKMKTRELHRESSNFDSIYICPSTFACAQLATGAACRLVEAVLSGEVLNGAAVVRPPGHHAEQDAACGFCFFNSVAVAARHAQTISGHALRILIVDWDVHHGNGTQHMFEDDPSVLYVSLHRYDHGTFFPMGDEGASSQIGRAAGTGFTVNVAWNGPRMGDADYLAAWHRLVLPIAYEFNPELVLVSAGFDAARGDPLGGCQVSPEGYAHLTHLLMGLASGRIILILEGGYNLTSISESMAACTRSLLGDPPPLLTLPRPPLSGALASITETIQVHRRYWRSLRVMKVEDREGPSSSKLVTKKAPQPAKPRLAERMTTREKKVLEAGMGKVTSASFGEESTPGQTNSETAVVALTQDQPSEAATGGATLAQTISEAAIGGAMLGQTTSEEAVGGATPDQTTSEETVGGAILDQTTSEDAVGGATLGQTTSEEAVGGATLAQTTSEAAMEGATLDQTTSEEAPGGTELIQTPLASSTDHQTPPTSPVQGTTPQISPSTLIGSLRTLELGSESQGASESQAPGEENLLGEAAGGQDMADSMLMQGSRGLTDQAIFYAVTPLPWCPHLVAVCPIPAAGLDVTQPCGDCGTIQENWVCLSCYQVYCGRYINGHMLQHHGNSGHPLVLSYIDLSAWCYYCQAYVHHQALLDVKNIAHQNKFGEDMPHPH
Experiment: HDAC assay, [3H]acetate-incorporated histones with immunoprecipitated FLAG-tagged HDAC6 (HDAC6F)
Type: biochemical
Design: made in house; host or cells: TAg Jurkat cells, transient transfection, anti-FLAG M2 immunoprecipitation
Details: [3H]-labeled histones, n=3
Procedure: Cell culture and Transfections. TAg-Jurkat cells were transfected by electroporation with 5 μg of FLAG-epitope-tagged pBJ5 constructs (as described in ref. 5c) for expression of recombinant proteins. Cells were harvested 48 h posttransfection.
HDAC assays. […] Compounds were added in DMSO such that final assay concentrations were 1% DMSO. IC50s were calculated using Prism 3.0 software. Curve fitting was done without constraints using the program's Sigmoidal-Dose Response parameters. All data points were acquired in duplicate and IC50s are calculated from the composite results of at least two separate experiments.
Tubulin and MAPs were isolated from bovine brain as described [See http://mitchison.med.harvard.edu/protocols/tubprep.html]. Whole brain and fractions from phosphocellulose chromatography were blotted for HDAC6 and acetylated α-tubulin. Cultured hippocampal neurons from dissociated 1-day old rat brains were transfected with an enhanced green fluorescent protein (EGFP)-actin construct at 4-5 days using the calcium phosphate method [E. N. Star, D. J. Kwiatkowski and V. N. Murthy, Nat. Neurosci. […] K. Miranti and M. E. Greenberg, J. Neurosci. […] Transfected cultures were allowed to grow for at least 48 h before the addition of experimental compounds.
[^3H]Acetate-incorporated histones were isolated from butyrate-treated HeLa cells as described [J. Taunton, C. […] Immunoprecipitates were incubated with acetylated histones and HDAC activity determined by scintillation counting as described [J. Taunton, C. […] TDAC assays were performed with immunoprecipitates using MAP-stabilized microtubules polymerized from MAP-rich tubulin fraction as described [C. […] Reactions were incubated (2 h) at 37° C., then incubated on ice (15 min).

Structure (SMILES) | inhibition of HDAC activity of wild-type HDAC6F
CC(/C=C/C(=O)NO)=C\[C@@H](C)C(=O)c1ccc(N(C)C)cc1 [TSA, trichostatin A, reference compound] | only partial inhibited by TSA or tubacin
O=C(CCCCCCC(=O)Nc1ccc([C@@H]2OC(c3ccc(CO)cc3)C[C@H](CSc3nc(-c4ccccc4)c(-c4ccccc4)o3)O2)cc1)NO (some centres unmarked) [tubacin] | only partial inhibited by TSA or tubacin
